Results published in PubChem BioAssay AID248 (DTP/NCI, 2004).
Several values for one entry are separate records, joined by “and”; a condition that tells them apart may be missing. Identical values can stand only once. Toxic doses and inconclusive results are not listed. No stated cut-off is given here; in the data, active means T/C of 150% or more; inactive means T/C below 125%. Square brackets hold non-standard residues; d marks the D form. Peptide text beside a SMILES is read from it. * marks the point of attachment. ξ: configuration not given here. ξW = NC(Cc1c[nH]c2ccccc12)C(=O)O; Cbz = O=C(OCc1ccccc1)*

System: L1210 leukemia ip in BDF1 mice, survival T/C
Assay: NCI In Vivo Anticancer Drug Screen. Data for tumor model L1210 Leukemia (intraperitoneal) in B6D2F1 (BDF1) mice
Conditions: endpoint: mean survival time, higher = longer survival
Summary of the method: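 Tumor was transplanted into mice, which were then dosed with test compound or vehicle alone. Survival was recorded for each group, and the treated figure was expressed relative to the control figure.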

[1] = dose: 100.0 mg/kg/injection, schedule: Q01DX001 (ip), vehicle: saline
[2] = dose: 100.0 mg/kg/injection, schedule: Q04DX003 (ip), vehicle: saline with Tween-80
[3] = dose: 200.0 mg/kg/injection, schedule: Q01DX001 (ip), vehicle: saline
[4] = dose: 200.0 mg/kg/injection, schedule: Q04DX003 (ip), vehicle: saline with Tween-80
[5] = dose: 400.0 mg/kg/injection, schedule: Q01DX001 (ip), vehicle: saline
[6] = dose: 400.0 mg/kg/injection, schedule: Q04DX003 (ip), vehicle: saline with Tween-80
[7] = dose: 25.0 mg/kg/injection, schedule: Q04DX003 (ip), vehicle: Klucel (hydroxypropylcellulose) (HPC)
[8] = dose: 50.0 mg/kg/injection, schedule: Q04DX003 (ip), vehicle: Klucel (hydroxypropylcellulose) (HPC)
[9] = dose: 25.0 mg/kg/injection, schedule: Q01DX009 (ip), vehicle: Klucel (hydroxypropylcellulose) (HPC)
[10] = dose: 50.0 mg/kg/injection, schedule: Q01DX009 (ip), vehicle: Klucel (hydroxypropylcellulose) (HPC)
[11] = dose: 100.0 mg/kg/injection, schedule: Q01DX009 (ip), vehicle: Klucel (hydroxypropylcellulose) (HPC)
[12] = dose: 100.0 mg/kg/injection, schedule: Q04DX003 (ip), vehicle: Klucel (hydroxypropylcellulose) (HPC)
[13] = dose: 200.0 mg/kg/injection, schedule: Q04DX003 (ip), vehicle: Klucel (hydroxypropylcellulose) (HPC)
[14] = dose: 400.0 mg/kg/injection, schedule: Q04DX003 (ip), vehicle: Klucel (hydroxypropylcellulose) (HPC)

Measured: T/C

Cc1cc(N(C)C)ccc1N=Nc1ccccc1
inactive: dose: 50.0 mg/kg/injection, schedule: Q01DX001 (ip), vehicle: carboxymethylcellulose (CMC) 102 % of control | dose: 100.0 mg/kg/injection, schedule: Q01DX001 (ip), vehicle: carboxymethylcellulose (CMC) 102 % of control | dose: 200.0 mg/kg/injection, schedule: Q01DX001 (ip), vehicle: carboxymethylcellulose (CMC) 107 % of control | dose: 400.0 mg/kg/injection, schedule: Q01DX001 (ip), vehicle: carboxymethylcellulose (CMC) 96 % of control

COc1ccccc1CC(=O)O
inactive: [1] 100 % of control | [2] 101 % of control | [3] 103 % of control | [4] 105 % of control | [5] 108 % of control | [6] 101 % of control

Oc1c(Cl)cc(Cl)c(Cl)c1Cc1c(O)c(Cl)cc(Cl)c1Cl
inactive: dose: 12.5 mg/kg/injection, schedule: Q04DX003 (ip), vehicle: Klucel (hydroxypropylcellulose) (HPC) 109 % of control | [7] 100 % of control | [8] 98 % of control

Cc1ccc(SCC#CCOc2ccc(Cl)cc2)cc1
inactive: dose: 75.0 mg/kg/injection, schedule: Q01DX001 (ip), vehicle: saline 93 % of control | dose: 75.0 mg/kg/injection, schedule: Q01DX009 (ip), vehicle: saline 99 % of control | dose: 150.0 mg/kg/injection, schedule: Q01DX001 (ip), vehicle: saline 95 % of control | dose: 150.0 mg/kg/injection, schedule: Q01DX009 (ip), vehicle: saline 99 % of control | dose: 300.0 mg/kg/injection, schedule: Q01DX001 (ip), vehicle: saline 93 % of control | dose: 300.0 mg/kg/injection, schedule: Q01DX009 (ip), vehicle: saline 96 % of control

Cc1ccc(NC(=O)c2ccc([N+](=O)[O-])cc2)cc1Cl
inactive: [9] 95 % of control | [10] 103 % of control | dose: 100.0 mg/kg/injection, schedule: Q01DX001 (ip), vehicle: Klucel (hydroxypropylcellulose) (HPC) 95 % of control | [11] 103 % of control | [12] 93 % of control | dose: 200.0 mg/kg/injection, schedule: Q01DX001 (ip), vehicle: Klucel (hydroxypropylcellulose) (HPC) 106 % of control | [13] 95 % of control | dose: 400.0 mg/kg/injection, schedule: Q01DX001 (ip), vehicle: Klucel (hydroxypropylcellulose) (HPC) 98 % of control | [14] 98 % of control

CN(C)Cc1cc(C23CC4CC(CC(C4)C2)C3)cc(-c2ccccc2)c1O
inactive: dose: 100.0 mg/kg/injection, schedule: Q04DX003 (ip), vehicle: acetone 95 % of control | dose: 200.0 mg/kg/injection, schedule: Q04DX003 (ip), vehicle: acetone 98 % of control | dose: 400.0 mg/kg/injection, schedule: Q04DX003 (ip), vehicle: acetone 90 % of control

CC(C)(C)C1=CC(=O)C(C#N)=C(C#N)C1=O
inactive: dose: 100.0 mg/kg/injection, schedule: Q04DX003 (ip), vehicle: saline 96 % of control

CC[N+](CC)(CC)CCC[N+](CC)(CC)CC
inactive: dose: 30.0 mg/kg/injection, schedule: Q01DX009 (ip), vehicle: water 98 % of control | dose: 50.0 mg/kg/injection, schedule: Q01DX009 (ip), vehicle: water 95 % of control and 96 % of control | dose: 80.0 mg/kg/injection, schedule: Q01DX009 (ip), vehicle: water 98 % of control | dose: 100.0 mg/kg/injection, schedule: Q04DX003 (ip), vehicle: water 103 % of control | dose: 200.0 mg/kg/injection, schedule: Q04DX003 (ip), vehicle: water 99 % of control

CCCCCCCCCCCCCCCCC(Oc1ccc(Cl)cc1Cl)C(=O)O (configuration not stated)
inactive: [12] 102 % of control | [13] 98 % of control | [14] 101 % of control

COC(=O)c1ccccc1NC(=O)COc1cc(Cl)c(Cl)cc1Cl
inactive: dose: 100.0 mg/kg/injection, schedule: Q04DX002 (ip), vehicle: Klucel (hydroxypropylcellulose) (HPC) 96 % of control | dose: 200.0 mg/kg/injection, schedule: Q04DX002 (ip), vehicle: Klucel (hydroxypropylcellulose) (HPC) 89 % of control | dose: 400.0 mg/kg/injection, schedule: Q04DX002 (ip), vehicle: Klucel (hydroxypropylcellulose) (HPC) 86 % of control

Cc1cc(NC(=S)Nc2ccccc2)c(NC(=S)Nc2ccccc2)cc1C
inactive: dose: 12.5 mg/kg/injection, schedule: Q01DX005 (ip), vehicle: Klucel (hydroxypropylcellulose) (HPC) 103 % of control | dose: 25.0 mg/kg/injection, schedule: Q01DX005 (ip), vehicle: Klucel (hydroxypropylcellulose) (HPC) 87 % of control | [9] 96 % of control | dose: 50.0 mg/kg/injection, schedule: Q01DX005 (ip), vehicle: Klucel (hydroxypropylcellulose) (HPC) 103 % of control | [10] 96 % of control | dose: 100.0 mg/kg/injection, schedule: Q01DX005 (ip), vehicle: Klucel (hydroxypropylcellulose) (HPC) 97 % of control and 101 % of control | [11] 93 % of control | dose: 150.0 mg/kg/injection, schedule: Q01DX009 (ip), vehicle: Klucel (hydroxypropylcellulose) (HPC) 97 % of control | dose: 335.0 mg/kg/injection, schedule: Q01DX009 (ip), vehicle: Klucel (hydroxypropylcellulose) (HPC) 90 % of control | dose: 400.0 mg/kg/injection, schedule: Q01DX005 (ip), vehicle: Klucel (hydroxypropylcellulose) (HPC) 101 % of control

CC(c1ccccc1)[P+](c1ccccc1)(c1ccccc1)c1ccccc1 (configuration not stated)
inactive: dose: 12.5 mg/kg/injection, schedule: Q04DX002 (ip), vehicle: saline 106 % of control | dose: 25.0 mg/kg/injection, schedule: Q04DX002 (ip), vehicle: saline 111 % of control | dose: 50.0 mg/kg/injection, schedule: Q04DX002 (ip), vehicle: saline 97 % of control

COC(=O)C(Cc1c[nH]c2ccccc12)NC(=O)CNC(=O)CNC(=O)OCc1ccccc1 (stereo not drawn) (Cbz-Gly-Gly-[ξW]-OMe)
inactive: [2] 105 % of control | [4] 101 % of control | [6] 100 % of control

NC(N)=NC(N)=NCCCCc1ccccc1
inactive: [7] 95 % of control | [8] 109 % of control | [12] 101 % of control

O=C(NC1CCCCC1)Oc1ccc(-c2ccccc2)cc1Cl
inactive: [11] 101 % of control | [12] 111 % of control | dose: 200.0 mg/kg/injection, schedule: Q01DX009 (ip), vehicle: Klucel (hydroxypropylcellulose) (HPC) 107 % of control | [13] 104 % of control | dose: 400.0 mg/kg/injection, schedule: Q01DX009 (ip), vehicle: Klucel (hydroxypropylcellulose) (HPC) 98 % of control | [14] 98 % of control

COc1ccc(-c2c(CC(=O)O)c3cc(OC)ccc3n2Cc2ccc(Cl)cc2)cc1
inactive: dose: 65.0 mg/kg/injection, schedule: Q01DX Z (ip), vehicle: carboxymethylcellulose (CMC) 94 % of control | dose: 125.0 mg/kg/injection, schedule: Q01DX Z (ip), vehicle: carboxymethylcellulose (CMC) 98 % of control | dose: 250.0 mg/kg/injection, schedule: Q01DX Z (ip), vehicle: carboxymethylcellulose (CMC) 107 % of control | dose: 500.0 mg/kg/injection, schedule: Q01DX Z (ip), vehicle: carboxymethylcellulose (CMC) 94 % of control | dose: 750.0 mg/kg/injection, schedule: Q01DX Z (ip), vehicle: carboxymethylcellulose (CMC) 90 % of control | dose: 875.0 mg/kg/injection, schedule: Q01DX Z (ip), vehicle: carboxymethylcellulose (CMC) 91 % of control

COc1ccccc1C(=O)CC(O)(C(F)(F)F)C(F)(F)F
inactive: dose: 100.0 mg/kg/injection, schedule: Q01DX009 (ip), vehicle: saline with Tween-80 105 % of control | dose: 200.0 mg/kg/injection, schedule: Q01DX009 (ip), vehicle: saline with Tween-80 103 % of control | dose: 400.0 mg/kg/injection, schedule: Q01DX009 (ip), vehicle: saline with Tween-80 103 % of control

CCN(C(C)=O)c1ccc([N+](=O)[O-])cc1
inactive: [1] 105 % of control | [3] 96 % of control | [5] 105 % of control

CC(C)(Br)C(=O)C(Br)Br
inactive: [1] 106 % of control | [3] 102 % of control

CC(C)C1CCC(C)C(C(O)(C(F)(F)F)C(F)(F)F)C1=O (configuration not stated)
inactive: dose: 100.0 mg/kg/injection, schedule: Q01DX009 (ip), vehicle: saline 114 % of control | dose: 200.0 mg/kg/injection, schedule: Q01DX009 (ip), vehicle: saline 97 % of control | dose: 400.0 mg/kg/injection, schedule: Q01DX009 (ip), vehicle: saline 97 % of control

CCOC(=O)c1cc(Br)c(O)c(Br)c1
inactive: [10] 95 % of control | [11] 91 % of control
